Source: ChEMBL document CHEMBL6121008, “New series of 3-pyridyl-1,3-thiazoles: In vitro and in vivo anti-Trypanosomatidae profile, in vitro and in silico mechanism of action approach” (Eur J Med Chem, 2025)

How the values were obtained:
Trypanosoma cruzi [1] = assay: (§1) Antiparasitic activity against trypomastigote form of Trypanosoma cruzi Tulahuen expressing Escherichia coli beta-galactosidase infected in mouse L929 cells assessed as reduction in parasitic growth using CPRG as substrate pretreated with compound for 96 hrs followed by substrate addition and measured after 16 to 20 hrs by Spectrophotometric analysis; assay type: functional, organism-based
[2] = Cytotoxicity against mouse L929 cells assessed as inhibition of cell viability incubated for 96 hrs by MTT assay; assay type: toxicity, cell-based
[3] = Selectivity index, ratio of CC50 for mouse L929 cells to IC50 for antiparasitic activity against trypomastigote and amastigote form of Trypanosoma cruzi Tulahuen expressing Escherichia coli beta-galactosidase infected in mouse L929 cells; assay type: toxicity; settings: read-out: Selectivity Index
Trypanosoma cruzi [4] = assay: as §1, with “amastigote” for “trypomastigote”; assay type: functional, organism-based
Leishmania amazonensis [5] = assay: (§2) Antiparasitic activity against Leishmania amazonensis WHOM/00 LTB 0016 promastigote expressing Escherichia coli beta-galactosidase assessed as reduction in parasitic growth using CPRG as substrate preincubated with compound for 72 hrs followed by substrate addition and measured after 10 mins by Spectrophotometric analysis; assay type: functional, organism-based
Leishmania infantum [6] = assay: as §2, with “infantum MHOM/MA/67/ITMAP-263” for “amazonensis WHOM/00 LTB 0016”; assay type: functional, organism-based
Leishmania amazonensis [7] = assay: as §2, with “amastigote” for “WHOM/00 LTB 0016 promastigote”, “beta-galactosidase infected in mouse RAW264.7 cells” for “beta-galactosidase”, “24” for “72”, “2 to 6 hrs” for “10 mins”; assay type: functional, organism-based
Leishmania infantum [8] = assay: Antiparasitic activity against Leishmania infantum amastigote expressing Escherichia coli beta-galactosidase infected in mouse RAW264.7 cells assessed as reduction in parasitic growth using CPRG as substrate preincubated with compound for 24 hrs followed by substrate addition and measured after 2 to 6 hrs by Spectrophotometric analysis; assay type: functional, organism-based
[9] = Cytotoxicity against mouse RAW264.7 cells assessed as inhibition of cell viability incubated for 48 hrs by MTT assay; assay type: toxicity, cell-based
[10] = Selectivity index, ratio of CC50 for mouse RAW264.7 cells to IC50 for antiparasitic activity against Leishmania infantum MHOM/MA/67/ITMAP-263 promastigote expressing Escherichia coli beta-galactosidase; assay type: toxicity; settings: read-out: Selectivity Index
[11] = Selectivity index, ratio of CC50 for mouse RAW264.7 cells to IC50 for antiparasitic activity against Leishmania infantum amastigote expressing Escherichia coli beta-galactosidase infected in mouse RAW264.7 cells; assay type: toxicity; settings: read-out: Selectivity Index
[12] = Selectivity index, ratio of CC50 for mouse RAW264.7 cells to IC50 for antiparasitic activity against Leishmania amazonensis WHOM/00 LTB 0016 promastigote expressing Escherichia coli beta-galactosidase; assay type: toxicity; settings: read-out: Selectivity Index
[13] = Selectivity index, ratio of CC50 for mouse RAW264.7 cells to IC50 for antiparasitic activity against Leishmania amazonensis amastigote expressing Escherichia coli beta-galactosidase infected in mouse RAW264.7 cells; assay type: toxicity; settings: read-out: Selectivity Index
[14] = Leishmania amazonensis, WHOM/00 LTB 0016, read-out: IC50
[15] = Leishmania infantum, MHOM/MA/67/ITMAP-263, read-out: IC50
[16] = Leishmania amazonensis, RAW264.7, read-out: IC50
[17] = Leishmania infantum, RAW264.7, read-out: IC50

IC50 (Trypanosoma cruzi [1]) [µM] | IC50 (Trypanosoma cruzi [4]) [µM] | Structure (SMILES) | CC50 at 96 h [2] [µM] | selectivity ratio [3] | IC50 (Leishmania amazonensis [5]; [14]) [µM] | IC50 (Leishmania infantum [6]; [15]) [µM] | IC50 (Leishmania amazonensis [7]; [16]) [µM] | IC50 (Leishmania infantum [8]; [17]) [µM] | CC50 at 48 h [9] [µM] | selectivity ratio [10] | selectivity ratio [11] | selectivity ratio [12] | selectivity ratio [13] | IC50 (Leishmania amazonensis [5]) | IC50 (Leishmania infantum [6]) | IC50 (Leishmania infantum [8]; raw264.7) | IC50 (Leishmania amazonensis [7]; raw264.7)
4.9 | 4.9 | C/C(=N\N=c1\scc(-c2ccc(C)cc2)n1C)c1cccnc1 | 23 | 4.7 | 75.5 | 53.7 | 31 | 18 | 36.2 | 0.7 | 2 | 0.5 | 1.2 |  |  |  | 
2 | 2 | COc1ccc(-c2cs/c(=N/N=C(\C)c3cccnc3)n2C)cc1 | 6.2 | 3.1 | 38.7 | 20.1 | 14.8 | 12.4 | 14.7 | 0.7 | 1.2 | 0.4 | 1 |  |  |  | 
3.8 | 3.8 | C/C(=N\N=c1/[nH]c(-c2ccc(F)cc2)cs1)c1cccnc1 | > 320 | > 84.2 |  |  | 44.7 |  | 52.3 |  |  |  | 0.6 | Not_active | Not_active | Not_active | 
1 | 1 | C/C(=N\N=c1\scc(-c2cccc([N+](=O)[O-])c2)n1C)c1cccnc1 | 13.3 | 13.3 |  |  |  | 33.3 | 17.5 |  | 0.5 |  |  | Not_active | Not_active |  | Not_active
59.4 | 59.4 | C/C(=N\N=c1/[nH]c(-c2ccc([N+](=O)[O-])cc2)cs1)c1cccnc1 | > 295 | > 5 |  |  | 295 | 45.6 | 63.6 |  | 1.4 |  | 0.2 | Not_active | Not_active |  | 
2.5 | 2.5 | C/C(=N\N=c1\scc(-c2ccc([N+](=O)[O-])cc2)n1C)c1cccnc1 | 88.6 | 35.4 | 168 | 200 |  |  | 41.2 | 0.2 |  | 0.2 |  |  |  | Not_active | Not_active

Further lines, the compound ahead of its results:

Structure (SMILES) | IC50 (Trypanosoma cruzi [1]) [µM] | IC50 (Trypanosoma cruzi [4]) [µM] | CC50 at 96 h [2] [µM] | selectivity ratio [3] | IC50 (Leishmania amazonensis [5]; [14]) [µM] | IC50 (Leishmania infantum [6]; [15]) [µM] | IC50 (Leishmania amazonensis [7]; [16]) [µM] | IC50 (Leishmania infantum [8]; [17]) [µM] | CC50 at 48 h [9] [µM] | selectivity ratio [10] | selectivity ratio [11] | selectivity ratio [12] | selectivity ratio [13] | IC50 (Leishmania amazonensis [5]) | IC50 (Leishmania infantum [6]) | IC50 (Leishmania infantum [8]; raw264.7) | IC50 (Leishmania amazonensis [7]; raw264.7)
C[C@@H]1[C@H](O)[C@@H](C)/C=C/C=C/C=C/C=C/C=C/C=C/C=C/[C@H](O[C@@H]2O[C@H](C)[C@@H](O)[C@H](N)[C@@H]2O)C[C@@H]2O[C@](O)(C[C@@H](O)C[C@@H](O)[C@H](O)CC[C@@H](O)C[C@@H](O)CC(=O)O[C@H]1C)C[C@H](O)[C@H]2C(=O)O [AMPHOTERICIN B] |  |  |  |  | 0.1 | 0.2 | 0.04 | 0.06 | 3.5 | 17.5 | 58.3 | 35 | 87.5 |  |  |  | 
CNC(=S)N/N=C(\C)c1cccnc1 |  |  |  |  | 339 |  | 183 |  | 148 |  |  | 0.4 | 0.8 |  | Not_active | Not_active | 
C/C(=N\NC(=S)Nc1ccccc1)c1cccnc1 |  |  |  |  | 7 | 21.8 |  | 21.1 |  | 4.4 | 4.5 | 13.7 |  |  |  |  | 
CCCCCCCCCCCCCCCCOP(=O)([O-])OCC[N+](C)(C)C [MILTEFOSINE] |  |  |  |  |  | 3.2 | 1.7 | 1.7 |  | 6.8 | 12.7 | 6.8 | 13.1 |  |  |  | 
C/C(=N\NC(N)=S)c1cccnc1 |  |  |  |  |  |  | 275 | 163 | 213 |  | 1.3 |  | 0.8 | Not_active | Not_active |  | 
